A short description of this data set: Human HepG2 cell viability assay in 384 well format. The data set is classed as toxicity, cell-based. The arrangement: dose 125 nL, time 70.5 hour; cytotoxicity at 70.5 h: concentration not given beside the values. Particulars: HepG2 cells, read-out: Inhibition.
Consider `CNc1cc(C)nc(N2CCC3(CC2)[C@H](O)C[C@@H]3OCCN(C)C)n1`, for which the cytotoxicity at 70.5 h is -1.9%.

For the molecule `CCc1ccc(C(=O)O)cc1S(=O)(=O)N(C)c1cccc(C)c1`, the cytotoxicity at 70.5 h was -7.54%.

As for `Cc1ncsc1C(=O)N1CCCC(c2cc(C(F)F)n3ncnc3n2)C1` (stereo not drawn), the cytotoxicity at 70.5 h was determined as 0.833%.

Regarding `Cc1cccc(-c2nnc(C(C)NCCn3cc(C)cn3)o2)c1` (stereo not drawn), the cytotoxicity at 70.5 h is -7.5%.

`CCn1ccc(NC(=O)CCc2c(C)noc2C)n1`: the cytotoxicity at 70.5 h is -7.45%.

For the molecule `O=C1N(c2ccsc2)CCC12CCCN(Cc1cccnc1)C2` (stereo not drawn), the cytotoxicity at 70.5 h is -7.79%.

Consider `COC(=O)N1CCC(Nc2ccc(Cl)c(C#N)n2)CC1`, for which the cytotoxicity at 70.5 h is -0.879%.

As for `CC1CN(C(=O)c2cnn(-c3ccccn3)c2C(C)C)CC(C)(C)O1` (stereo not drawn), the cytotoxicity at 70.5 h is -4.17%.

In the case of `Cc1ccc(-c2nc(CSCCC(=O)NC(N)=O)co2)cc1`, the cytotoxicity at 70.5 h is -11.4%.

`COC(C)(CNS(=O)(=O)c1cccnc1)c1ccccc1F` (stereo not drawn): the cytotoxicity at 70.5 h was -18.1%.

Take `CS(=O)(=O)NCc1cc(=O)n2c(n1)CN(CC1CC1)CCC2`: the cytotoxicity at 70.5 h was 7.49%.

`CN(C)c1ncnc2c1CCN(S(=O)(=O)c1cccc(Cl)c1Cl)C2`: the cytotoxicity at 70.5 h is -4.66%.

With `CC(C)c1ccc(OCCNC(=O)N2CCS(=O)(=O)CC2)cc1`, the cytotoxicity at 70.5 h was -2.35%.

As to `CCNC(=O)[C@@H]1C[C@@H](NC(=O)c2cc(C)on2)CN1Cc1ccccn1`, the cytotoxicity at 70.5 h was 24.8%.

With `CCC(Cn1ccnc1)n1cnc2c(C)csc2c1=O` (stereo not drawn), the cytotoxicity at 70.5 h is -14.3%.

For `Cc1cnn(CC2CN(Cc3cccc(OCC(N)=O)c3)CCO2)c1` (stereo not drawn), the cytotoxicity at 70.5 h was -5.97%.

Consider `CCNC(=O)Cn1ncc(N(C)CCc2ccccc2)cc1=O`, for which the cytotoxicity at 70.5 h worked out at 8.48%.

Consider `N#Cc1cc(N2CCC(CS(N)(=O)=O)CC2)c2ccccc2n1`, for which the cytotoxicity at 70.5 h is 14.9%.

Turning to `CS(=O)(=O)NC(=O)c1nnn(-c2ccccc2)c1C1CC1`, the cytotoxicity at 70.5 h is -5.6%.

In the case of `CC(C)(C)CN[C@@H]1CO[C@H](CNC(=O)c2cccs2)[C@H]1O`, the cytotoxicity at 70.5 h was 4.02%.

`Cc1cc(NC(N)=O)ccc1OCC(F)(F)F`: the cytotoxicity at 70.5 h was -2.1%.

`CCn1nnnc1-c1cccc(NCc2nc(C)ccc2O)c1`: the cytotoxicity at 70.5 h is -6.25%.

In the case of `COCC(=O)NC(c1ccc(Cl)cc1)C(F)(F)F` (stereo not drawn), the cytotoxicity at 70.5 h is -12.5%.

Regarding `CCNc1cc2c(nn1)CCN(C(=O)c1cc3cccc(C)c3o1)C2`, the cytotoxicity at 70.5 h was -2.31%.

Regarding `CCc1cc(-c2cc[nH]n2)nc(N2CCOCC2)n1`, the cytotoxicity at 70.5 h was determined as 15.6%.

Turning to `CCc1cc(=O)[nH]c(-c2ccc(NC(C)CN3CCOCC3)nc2)n1` (stereo not drawn), the cytotoxicity at 70.5 h is -0.904%.

Consider `CN1CC[C@H]2CN(C(=O)c3csc(Cc4ccccc4)n3)C[C@H]21`, for which the cytotoxicity at 70.5 h was -5.61%.

With `CCS(=O)(=O)c1ncc(CN2CCCC2)n1CCc1ccccc1`, the cytotoxicity at 70.5 h is -12.5%.

In the case of `CCOc1ccc2[nH]c(=O)c(CN3CCC(O)CC3)cc2c1`, the cytotoxicity at 70.5 h is -7.88%.

As to `c1ccc(Cc2cccc(C3CCCN3C3CCOCC3)n2)cc1` (stereo not drawn), the cytotoxicity at 70.5 h was -13.2%.

With `CCc1ncc2c(n1)CN(Cc1nc(-c3ccsc3)oc1C)CC2`, the cytotoxicity at 70.5 h worked out at 1.83%.

As to `COc1c(C)cnc(CN(C)C(=O)c2ccc(C3CCCO3)s2)c1C` (stereo not drawn), the cytotoxicity at 70.5 h was -6.12%.

With `O=C(c1ccoc1)N1CCC2(CC1)C(=O)N(CC1CC1)c1ccccc12`, the cytotoxicity at 70.5 h was -2.01%.

`Cc1cc(C)n(CC2CN(Cc3noc(C4CC4)n3)CCO2)n1` (stereo not drawn): the cytotoxicity at 70.5 h was -6.69%.

With `COCCN1C(=O)CO[C@@H]2CN(S(=O)(=O)c3ccccc3)C[C@H]21`, the cytotoxicity at 70.5 h was 5.06%.

Regarding `CCN(CCn1cccn1)Cc1nc(-c2cc(F)ccc2F)oc1C`, the cytotoxicity at 70.5 h is -11.2%.

Turning to `CCn1nc(CC(C)C)cc1C(=O)N1CCCOC(CN2CCCC2)C1` (stereo not drawn), the cytotoxicity at 70.5 h was -3.36%.

Turning to `CC(=O)c1ccccc1-c1cc(C(=O)O)cc(S(=O)(=O)NC(C)C)c1`, the cytotoxicity at 70.5 h was -14.9%.

For `CCc1nc(C)c(C(=O)NCCNc2ncccc2C#N)s1`, the cytotoxicity at 70.5 h was found to be 19.3%.

For `CCc1ncnc2c1CCN(C(=O)c1ccncc1F)CC2`, the cytotoxicity at 70.5 h was -6.52%.

As for `CN(C)c1nc2n(c(=O)n1)CCN2C(=O)Nc1ccccc1`, the cytotoxicity at 70.5 h is -5.25%.

With `Cc1nc(-c2ccsc2)ccc1C(=O)NCCCN1CCOCC1`, the cytotoxicity at 70.5 h is -5.66%.

As to `CCCn1nc2c(cc1=O)CN(Cc1nc(C)c(C)o1)CC2`, the cytotoxicity at 70.5 h is -9.42%.

On to `Cc1noc(C)c1-c1ccnc(C2CCNCC2)c1`, for which the cytotoxicity at 70.5 h was -2.34%.

`c1cnn(CC2CCCN2c2ncnc3ccsc23)c1` (stereo not drawn): the cytotoxicity at 70.5 h was 10.7%.

Take `CCCn1ncc(C(=O)NC(C)c2c(C)nn(CC)c2C)c1C` (stereo not drawn): the cytotoxicity at 70.5 h was -8.47%.

As to `CCN1C[C@H]2CCN(C(C)=O)CC[C@H]2S1(=O)=O`, the cytotoxicity at 70.5 h is -14.5%.

As to `CC(=O)NCC(=O)N(CCc1ccccc1)C1CCOC1` (stereo not drawn), the cytotoxicity at 70.5 h is -9.4%.

With `CNC(=O)C(C)(C)N1CCC[C@H]1C(=O)NCC(C)C`, the cytotoxicity at 70.5 h was -6.89%.

Regarding `CC(=O)N(Cc1noc(C)n1)C1CCN(Cc2ncc(C(C)C)o2)C1` (stereo not drawn), the cytotoxicity at 70.5 h was 51.4%.

Turning to `CC(CNC(=O)c1nc(N2CCOCC2)ncc1Cl)c1ccccc1` (stereo not drawn), the cytotoxicity at 70.5 h came to 7.86%.

For the molecule `Cc1ccc(C(=O)N2C[C@@H]3CN(c4ncccn4)C[C@@H]3C2)cn1`, the cytotoxicity at 70.5 h was -9.68%.

In the case of `CC(SCCNS(=O)(=O)c1cnn(C)c1)c1cccs1` (stereo not drawn), the cytotoxicity at 70.5 h is -4.4%.

With `CC(CO)(NC(=O)Nc1nncs1)C1CCCCC1` (stereo not drawn), the cytotoxicity at 70.5 h is 2.4%.

Take `Cc1cc(CC(=O)N2CCN(CC3CC3)[C@@H]3CS(=O)(=O)C[C@@H]32)ccc1F`: the cytotoxicity at 70.5 h came out at 4.69%.

Take `CC(C)c1nnc2n1CCN(C(C)c1nnc(-c3cccs3)o1)C2` (stereo not drawn): the cytotoxicity at 70.5 h was -3.01%.

As to `Cc1ncc(CNC2CCCN(Cc3noc(C4CC4)n3)C2)s1` (stereo not drawn), the cytotoxicity at 70.5 h was -2.63%.

Turning to `Cn1nccc1-c1cnc2n1CCC21CCN(C(=O)C2(C)CC2)CC1`, the cytotoxicity at 70.5 h was -11%.

Consider `O=C(Nc1cnn(CCN2CCOCC2)c1)c1ccccc1Cl`, for which the cytotoxicity at 70.5 h was determined as 0.235%.

On to `COCCCNC(=O)c1cn(C(C)C)cc2c(=O)[nH]nc1-2`, for which the cytotoxicity at 70.5 h was -9.87%.

Turning to `O=C(c1cn(Cc2ccccc2)c2ncccc12)N1CCOCC1`, the cytotoxicity at 70.5 h was 2.42%.

Take `Cc1nccc(CNC(=O)NCCC(=O)N2CCCc3ccccc32)n1`: the cytotoxicity at 70.5 h was -2.13%.

Take `CC(=O)N[C@@H]1CN(S(=O)(=O)c2ccc(Cl)cc2)C[C@H]1O`: the cytotoxicity at 70.5 h was -7.41%.

For the molecule `N#Cc1ccc(NCCCOCC2CCOC2)c(F)c1` (stereo not drawn), the cytotoxicity at 70.5 h came out at 6.96%.

Regarding `O=C(Nc1ccc(-c2cnc(NCCO)nc2)cc1)[C@@H]1CCCCN1`, the cytotoxicity at 70.5 h was -3.46%.

For the molecule `Cc1noc([C@@]23CCO[C@@H]2CCN(C(=O)c2cc(C)[nH]c2C)C3)n1`, the cytotoxicity at 70.5 h is -2.6%.

Regarding `O=C(c1ccc2c(c1)COC2)N1CCN(CC2CC2)CC1`, the cytotoxicity at 70.5 h is -7.78%.

Turning to `O=C([C@H]1CCCO1)N1CCC2(CC1)Cc1ccccc1CNC2=O`, the cytotoxicity at 70.5 h worked out at 3.51%.

In the case of `Cc1nc(NCCN2CCCC2=O)cc(C2CN(C(C)C)CCO2)n1` (stereo not drawn), the cytotoxicity at 70.5 h amounted to 1.39%.

Consider `CN(CCC(F)(F)F)C(=O)[C@H]1CSCN1C(=O)OC(C)(C)C`, for which the cytotoxicity at 70.5 h is -1.73%.

As to `Cn1cncc1-c1nnc([C@H]2CCN(CC(C)(C)C)C2)o1`, the cytotoxicity at 70.5 h stood at 14%.

Take `Cc1cc(C(=O)N2CCCC(O)(CN3CCCC3)C2)ccc1Cl` (stereo not drawn): the cytotoxicity at 70.5 h was determined as 1.99%.

Consider `CCC(C(=O)NCc1nc(C)cc(C(F)(F)F)n1)n1cccn1` (stereo not drawn), for which the cytotoxicity at 70.5 h is -11.3%.

Take `COCC(=O)N1CCn2c(Cn3cncn3)cnc2C1C` (stereo not drawn): the cytotoxicity at 70.5 h was -6.96%.

In the case of `Cc1nc(N2CCCCC2)ncc1-c1cc(O)[nH]n1`, the cytotoxicity at 70.5 h was -3.47%.

For the molecule `CC(C)(C)NC(=O)CNc1ncc(Br)cn1`, the cytotoxicity at 70.5 h came to 0.722%.

On to `O=C(CCN1C(=O)CCC1=O)Nc1cnn(-c2ccccc2Cl)c1`, for which the cytotoxicity at 70.5 h stood at 10%.

`Cc1nc(CN(C)C(=O)Nc2cnn(CC3CCCO3)c2)cs1` (stereo not drawn): the cytotoxicity at 70.5 h is -1.56%.

Regarding `Cc1noc([C@@]23CCO[C@@H]2CCN(C(=O)c2sccc2C)C3)n1`, the cytotoxicity at 70.5 h was -1.6%.

On to `CCN(CC)c1ccc(NS(=O)(=O)c2cncc(F)c2)cn1`, for which the cytotoxicity at 70.5 h is -0.536%.

As to `Cc1cccc(Nc2ccc(C3CCCCN3)cn2)n1` (stereo not drawn), the cytotoxicity at 70.5 h came to 4.51%.

Regarding `Cc1cc(=O)n2ncnc2n1CC(O)c1cc(Cl)ccc1Cl` (stereo not drawn), the cytotoxicity at 70.5 h is -22.2%.

Regarding `CS(=O)(=O)c1cccc(C(=O)NCC2Cc3ccccc3O2)c1` (stereo not drawn), the cytotoxicity at 70.5 h is -5.79%.

With `CN(C)C(=O)c1cnc2n1CCN(Cc1ccsc1)C2`, the cytotoxicity at 70.5 h was found to be 2.92%.

On to `CCN(CCO)C(=O)C1CCC(=O)N(Cc2cccc(OC)c2)C1` (stereo not drawn), for which the cytotoxicity at 70.5 h was -13.2%.

For `Cc1c[nH]c(CN2CC[C@@]3(O)CCN(C(=O)C4CCCC4)C[C@H]3C2)n1`, the cytotoxicity at 70.5 h was 19.2%.

`COC(=O)N1CCC(Oc2ccc(C(=O)NCCN(C)C)cc2Cl)CC1`: the cytotoxicity at 70.5 h was -8.08%.

Take `Cc1[nH]c2c(F)cccc2c1CC(=O)N1CCC(NS(C)(=O)=O)CC1`: the cytotoxicity at 70.5 h was -7.49%.

With `Cn1ncc2c1NC(=O)CC2c1ccc(Cl)cc1Cl` (stereo not drawn), the cytotoxicity at 70.5 h is -15%.

As for `CCC(=O)N1CCC2(C=C(C(=O)N3CCCC3)c3ccccc32)CC1`, the cytotoxicity at 70.5 h was 8.56%.

For the molecule `Cc1cc(C(C)NCCN2CCC(N(C)C)CC2)c(C)s1` (stereo not drawn), the cytotoxicity at 70.5 h was found to be 12.7%.

For `Cc1nc(CN2CCCC2c2noc(C3CC3)n2)nc2ccccc12` (stereo not drawn), the cytotoxicity at 70.5 h was 43.5%.

As for `O=C(NC1CCN(c2snc3ccccc23)CC1)C1CCC1`, the cytotoxicity at 70.5 h was 14.4%.

Turning to `CC(=O)N1CCC2(CCN(Cc3ccccn3)C2=O)C1` (stereo not drawn), the cytotoxicity at 70.5 h was 3.63%.

For the molecule `COCCCNC(=O)N1CCN(C(=O)c2nsc3ccccc23)CC1`, the cytotoxicity at 70.5 h is -18.1%.

Consider `CC(=O)NCc1cncc(C2CCCN2C2CCOCC2)n1` (stereo not drawn), for which the cytotoxicity at 70.5 h was -5.7%.

For the molecule `Cc1nc(CN2CCC3(CC2)NC(=O)CC3c2ccccc2)cs1` (stereo not drawn), the cytotoxicity at 70.5 h was -2.14%.

Regarding `O=C1N(Cc2ccncc2)CCC12CCCN(c1ncc(F)cn1)C2` (stereo not drawn), the cytotoxicity at 70.5 h turned out to be 14.6%.

(Values after ChEMBL document CHEMBL3507680, “University of Dundee, Gates Library screen for HepG2 cell viability”.)
